In ChEMBL document CHEMBL5726054, “Substituted bicyclic compounds” (2019):

target: Sphingosine 1-phosphate receptor 1 (Homo sapiens) (UniProt P21453); assay: hS1P1 ERK Phosphorylation (S1P1 pERK): hS1P1/CHO cells were plated into BD Amine 384-well plates the day before the assay. On the day of the assay, growth medium was removed and replaced with serum-free medium (Ham's F-12 Invitrogen) and incubated for 2 hours. Test compounds pre-diluted in HBSS (Gibco)/20 mM HEPES (Gibco) were transferred to the cell plates and incubated for 7 minutes at 37° C. …
Sequence (P21453 whole entry, looked up): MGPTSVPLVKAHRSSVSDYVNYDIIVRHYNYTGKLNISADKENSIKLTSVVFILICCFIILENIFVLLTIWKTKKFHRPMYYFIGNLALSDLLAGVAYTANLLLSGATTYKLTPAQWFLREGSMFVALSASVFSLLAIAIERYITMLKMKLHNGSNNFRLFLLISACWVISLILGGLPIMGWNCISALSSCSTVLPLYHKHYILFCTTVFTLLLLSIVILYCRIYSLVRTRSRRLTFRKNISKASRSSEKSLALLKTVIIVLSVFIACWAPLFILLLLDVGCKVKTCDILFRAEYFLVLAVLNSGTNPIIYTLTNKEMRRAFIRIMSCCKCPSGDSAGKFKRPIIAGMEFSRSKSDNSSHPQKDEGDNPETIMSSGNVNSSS

Row | EC50 | SMILES
1 | in the range around 55 nM | CCCC/C=C/[C@@H]1CCc2cc([C@H]3CC[C@](N)(COP(=O)(O)O)C3)ccc2C1
2 | in the range around 55 nM | CCCCCC[C@H]1COc2cc([C@H]3CC[C@](N)(COP(=O)(O)O)C3)ccc2C1
3 | in the range around 55 nM | CCCCCCC1CCc2cc(C3CCC(N)(COP(=O)(O)O)C3)ccc2O1 (stereo not drawn)
